{"source": "patent US20040180879A1", "about": "“Novel method of treating vasomotor symptoms” (priority 2002, published 2004)", "key": {"[1]": {"details": "desipramine 300-500 mg/day; fluoxetine 20 mg/day; cited from earlier work"}, "[2]": {"test_system": "morphine-dependent rat model (MD model) of hot flush", "experiment": "morphine-dependent naloxone-induced flush (MD model) of hot flush, tail skin temperature", "format": "in vivo", "details": "for effect of the combination with 5-HT2a receptor antagonist on abating naloxone-induced flush: MDL-100907 0.01 mg/kg sc + desipramine 1 mg/kg or venlafaxine 10 mg/kg sc; for effect on MDL-100907-induced pre-naloxone flush (words): given sc 40 min prior to naloxone, after MDL-100907 0.01 mg/kg (55 min prior), desipramine 1 mg/kg; for effect on MDL-100907-induced pre-naloxone flush (words) / abatement of 5-HT2a receptor antagonist-induced pre-naloxone flush: venlafaxine 10 mg/kg, 15 min pre-naloxone; for abatement of 5-HT2a receptor antagonist-induced pre-naloxone flush: given sc after MDL-100907 (0.01 mg/kg), desipramine 1.0 mg/kg, compared to MDL treated animals"}}, "note": "“Also recorded” adds a separate entry of the source."}
{"smiles": "CNCCC(Oc1ccc(C(F)(F)F)cc1)c1ccccc1", "note": "(centres unmarked) [fluoxetine]", "values": [{"measurement": "side effects of high doses alone", "setting": "[1]", "result": "can induce vomiting, nausea, sweating and flushes"}]}
{"smiles": "COc1cccc(C(O)C2CCN(CCc3ccc(F)cc3)CC2)c1OC", "note": "(stereo not drawn) [MDL-100907, (+)-α-(2,3-dimethoxyphenyl)-1-[2-(4-fluorophenyl)ethyl]-4-piperidinemethanol]", "values": [{"measurement": "effect of the combination with 5-HT2a receptor antagonist on abating naloxone-induced flush", "setting": "[2]; 15 min post-naloxone, listed as MDL-100902", "result": "enhances desipramine's effect on abating naloxone-induced flush; also recorded: enhances venlafaxine's effect on a naloxone-induced flush"}, {"measurement": "effect of 5-HT2a receptor antagonist on DOI alleviation of naloxone-induced flush", "setting": "[2]; MDL-100907 (0.01 and 0.1 mg/kg sc) after DOI 0.3 mg/kg sc, maximal flush, 15 min post-naloxone", "result": "reverse the efficacy of the 5-HT2a agonist in abating the naloxone-induced flush; also recorded: reversed the DOI alleviation of the naloxone-induced flush"}, {"measurement": "effect on tail skin temperature (TST) prior to naloxone (5-HT2a antagonist-induced flush)", "setting": "[2]; MDL-100907 alone, 0.01 mg/kg sc, 55 min prior to naloxone, 0.01 mg/kg", "result": "induced hot flush; also recorded: induced a significant increase in TST"}, {"measurement": "effect on naloxone-induced hot flush", "setting": "[2]; MDL-100907 alone, 0.01 mg/kg sc, post-naloxone", "result": "enhanced the naloxone-induced hot flush"}]}
{"smiles": "CNCCCN1c2ccccc2CCc2ccccc21", "note": "[desipramine]", "values": [{"measurement": "side effects of high doses alone", "setting": "[1]", "result": "can induce vomiting, nausea, sweating and flushes"}, {"measurement": "effect of the combination with 5-HT2a receptor antagonist on abating naloxone-induced flush", "setting": "[2]; 15 min post-naloxone", "result": "efficacy can be enhanced"}, {"measurement": "abatement of naloxone-induced flush on co-administration with 5-HT2a receptor antagonist", "setting": "[2]; desipramine 1.0 mg/kg sc + MDL-100907 0.01 mg/kg sc, 15 min post-naloxone", "result": 80, "unit": "%"}, {"measurement": "abatement of naloxone-induced hot flush", "setting": "[2]; desipramine alone, approximate ED50 (1.0 mg/kg sc), ovariectomized morphine-dependent rats", "result": 50, "unit": "%"}, {"measurement": "effect on MDL-100907-induced pre-naloxone flush (words)", "setting": "[2]", "result": "abates an MDL-100907-induced flush"}, {"measurement": "effect on MDL-100907-induced pre-naloxone flush (words)", "setting": "[2]; listed as Desipramine", "result": "reversed"}, {"measurement": "abatement of 5-HT2a receptor antagonist-induced pre-naloxone flush", "setting": "[2]", "result": 75, "unit": "%"}]}
{"smiles": "COc1ccc(C(CN(C)C)C2(O)CCCCC2)cc1", "note": "(centres unmarked) [venlafaxine]", "values": [{"measurement": "effect of the combination with 5-HT2a receptor antagonist on abating naloxone-induced flush", "setting": "[2]; 15 min post-naloxone", "result": "enhanced abatement of a naloxone-induced flush; also recorded: can enhance this effect"}, {"measurement": "effect on MDL-100907-induced pre-naloxone flush (words)", "setting": "[2]", "result": "abates an MDL-100907-induced flush"}, {"measurement": "effect on MDL-100907-induced pre-naloxone flush (words)", "setting": "[2]; listed as Venlafaxine", "result": "reversed"}, {"measurement": "abatement of 5-HT2a receptor antagonist-induced pre-naloxone flush", "setting": "[2]", "result": 60, "unit": "%"}]}
{"smiles": "COc1cc(CC(C)N)c(OC)cc1I", "note": "(centres unmarked) [DOI]", "values": [{"measurement": "effect of 5-HT2a receptor agonist on MDL-100907-induced flush", "setting": "[2]; DOI 0.3 mg/kg sc, 15 min prior to MDL-100907 (0.01 and 0.1 mg/kg)", "result": "block; also recorded: abated; also recorded: abatement"}]}
